Reference: patent US20200172473A1, “DUAL MODULATORS OF FARNESOID X RECEPTOR AND SOLUBLE EPOXIDE HYDROLASE” (JOHANN WOLFGANG GOETHE-UNIVERSITÄT FRANKFURT AM MAIN, priority 2017, published 2020)
Entries after “also recorded” stand apart in the source; their conditions may differ.

Assays:
HepG2 cells = test: WST-1 cytotoxicity assay; format: cell-based; details: up to 100 μM
RXRα = target: T1, RXRα (Homo sapiens, UniProt P19793); test: Gal4-hybrid reporter gene assay RXRα in HEK293T cells; format: cell-based; details: 10 μM
T1 construct: hRXRα-P19793, residues 225-462; expressed in transfected cells; host or cells: HEK293T
T1 sequence (P19793 225-462): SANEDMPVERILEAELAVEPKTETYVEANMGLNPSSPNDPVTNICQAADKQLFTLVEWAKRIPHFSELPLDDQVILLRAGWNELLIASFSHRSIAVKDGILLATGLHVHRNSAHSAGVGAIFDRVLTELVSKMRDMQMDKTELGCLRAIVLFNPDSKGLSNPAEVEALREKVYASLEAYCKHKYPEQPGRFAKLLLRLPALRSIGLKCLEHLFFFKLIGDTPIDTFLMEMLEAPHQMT
Excerpt: Hybrid reporter gene assays for PPARα/γ/δ, LXRα/β, RXRα/β/γ, RARα/β/γ, VDR and PXR Plasmids: The Gal4-fusion receptor plasmids pFA-CMV-hPPARα-LBD^52, pFA-CMV-hPPARγ-LBD^52, pFA-CMV-hPPARδ-LBD^52, pFA-CMV-hLXRα-LBD^32 and pFA-CMV-hLXRβ-LBD^32 have been reported previously. […] Frame and sequence of all fusion receptors were verified by sequencing. pFR-Luc (Stratagene) was used as reporter plasmid and pRL-SV40 (Promega) for normalization of transfection efficiency and cell growth.
Assay procedure: HEK293T cells were grown in DMEM high glucose, supplemented with 10% FCS, sodium pyruvate (1 mM), penicillin (100 U/mL) and streptomycin (100 μg/mL) at 37° C. and 5% CO2. The day before transfection, HEK293T cells were seeded in 96-well plates (2.5·10^4 cells/well). Before transfection, medium was changed to Opti-MEM without supplements. Transient transfection was carried out using Lipofectamine LTX reagent (Invitrogen) according to the manufacturer's protocol with pFR-Luc (Stratagene), pRL-SV40 (Promega) and pFA-CMV-hRXRα-LBD. 5 h after transfection, medium was changed to Opti-MEM supplemented with penicillin (100 U/mL), streptomycin (100 μg/mL), now additionally containing 0.1% DMSO and the respective test compound or 0.1% DMSO alone as untreated control. […] Luminescence was measured with an Infinite M200 luminometer (Tecan Deutschland GmbH). […]

[1] = system: PPARγ target genes CD36 and FAM3A; test: PPARγ target gene mRNA quantification (qRT-PCR) in HepG2 cells; format: cell-based; details: HepG2, 1 μM
PPARγ target gene FATP = PPARγ target gene FATP mRNA quantification from mouse livers; format: in vivo; details: 10 mg/kg p.o., 8 h post dose; vehicle 101±1
[2] = observation of animals in the pilot in vivo study; set-up: species or system mouse; details: single oral dose 10 mg/kg body weight
Experimental: Animals and compound application: 9 male C57BL/6JRj mice (23-26 g body weight, purchased from Janvier Labs, France) were used in the present study. The animals were housed in a temperature-controlled room (20-24° C.) and maintained in a 12 h light/12 h dark cycle. Food and water were available ad libitum. The in life phase was performed by the contract research organization Pharmacelsus (Saarbrücken, Germany). All experimental procedures were approved by and conducted in accordance with the regulations of the local Animal Welfare authorities (Landesamt für Gesundheit und Verbraucherschutz, Abteilung Lebensmittel-und Veterinärwesen, Saarbrücken). Six animals received a single oral dose of 10 mg/kg body weight of dual modulator 57 in water containing 1% HPMC/Tween 80 (99:1). Three animals received the vehicle (water containing 1% HPMC/Tween 80 (99:1)).

FXR target genes = test: FXR target gene mRNA quantification from mouse livers; format: in vivo; details: 10 mg/kg p.o., 8 h post dose
Experimental: (§1) Three additional animals served as vehicle control.
(§2) A part of the blood was centrifuged (6000 rpm, 10 min, +4° C.) to obtain plasma for quantification of EET/DHET ratio and stored at −80° C. until further evaluation. For liver collection, mice were sacrificed by cervical dislocation after the last blood sampling (8 h post dose). Complete liver was immediately snap-frozen and stored at −80° C. until further evaluation. Plasma and liver were equally obtained from three control mice which received oral application of the vehicle (1% HPMC/Tween 80 (99:1)).
Quantification of FXR target gene mRNA from mouse livers: Hepatocyte isolation of mouse liver tissue for RT-qPCR: To homogenize the liver samples, one third of each liver was placed on one Falcon™ Cell Strainer with 40 μm pore size (BD Bioscience, Erembodegem, Belgium) in a 50 mL Falcon tube. Every tissue was rinsed with PBS buffer containing 10% FCS and 1% PenStrep and pressed through the cell strainer until 5 mL cell suspension had been collected. The samples were centrifuged at 1200 rpm for to min at 4° C. The supernatant was discarded and the pellets were washed with 5 mL cold PBS buffer and again centrifuged at 1200 rpm for 10 min at 4° C. After discarding the supernatant, the cell pellets were re-suspended in 1 mL PBS and total RNA was extracted using the E. Z. A. Total RNA Kit I (Omega bio-tek Inc., Narcoss, Ga., USA) following the Animal Tissue Protocol. The extracted RNA was used for qRT-PCR and equally treated as described for mRNA quantification from HepG2 cells (see above). PCR primers for the murine genes are listed in the supporting information.

[3] = in vivo pharmacokinetic evaluation in mice; set-up: species or system mouse; details: single dose p.o. 10 mg/kg body weight
Experimental: as §1
Food and water were available ad libitum.
as §2

CC(C)(C)c1ccc(C(=O)NCc2ccc(NS(C)(=O)=O)cc2Cl)cc1 [compound 57, 4-(tert-Butyl)-N-(2-chloro-4-(methylsulfonamido)benzyl)benzamide]
cytotoxicity in WST-1 assay (HepG2 cells): no cytotoxic activity; also recorded: no cytotoxicity | activity on RXRα (RXRα): inactive | CD36 mRNA expression compared to vehicle set as 100% [1]: 119±33% | FAM3A mRNA expression compared to vehicle set as 100% [1]: 112±12% | FATP mRNA in mouse liver compared to vehicle set as 100% (PPARγ target gene FATP): not affected | adverse effects in mice [2]: no adverse effects | increased expression of BSEP in mouse liver (FXR target genes): approx. 3 fold | increased expression of FGF15 in mouse liver (FXR target genes): approx. 2.5 fold | increased expression of SHP in mouse liver (FXR target genes): approx. 4 fold | reduced SREBP1c levels in mouse liver (FXR target genes): approx. 5 fold | SREBP1c mRNA in mouse liver compared to vehicle set as 100% (FXR target genes; vehicle 82±14): 17±10% | BSEP mRNA in mouse liver compared to vehicle set as 100% (FXR target genes; vehicle 105±24): 312±103% | SHP mRNA in mouse liver compared to vehicle set as 100% (FXR target genes; vehicle 108+29): 410±147% | FGF15 mRNA in mouse liver compared to vehicle set as 100% (FXR target genes; vehicle 119±15): 254±9% | Cmax [3]: 1182 ng/mL | t1/2 [3]: 42 min | tmax [3]: 30 min
